Our source for the IC50 values is patent US20250353864A1, “INDAZOLE CONTAINING MACROCYCLES AND THEIR USE” (BLOSSOMHILL THERAPEUTICS, INC., priority 2022, published 2025).

Type in all cases: biochemical
One test has as its target EGFR L858R/T790M mutant (Homo sapiens (Human), UniProt P00533, L858R/T790M). Briefly: HotSpot radiometric kinase assay, EGFR L858R/T790M mutant. The settings on record: 10 μM ATP. On the procedure:
(§1) Biochemical Assays for Inhibition of Wild-Type and Mutant EGFRs
(§2) Briefly, specific kinase/substrate pairs along with required cofactors were prepared in reaction buffer; 20 mM Hepes pH 7.5, 10 mM […], 1 mM EGTA, 0.02% Brij35, 0.02 mg/ml BSA, 0.1 mM Na3VO4, 2 mM DTT, 1% DMSO. Compounds were delivered into the reaction, followed […] later by addition of a mixture of ATP (Sigma, St. Louis MO) and ^33P ATP (Perkin Elmer, Waltham MA) to a final concentration of 10 μM. Reactions were carried out at room temperature for 120 min, followed by spotting of the reactions onto P81 ion exchange filter paper (Whatman Inc., Piscataway, NJ). Unbound phosphate was removed by extensive washing of filters in 0.75% phosphoric acid. […] IC50 values and curve fits were obtained using Prism (GraphPad Software).

In the next test the target is EGFR (D770_N771insNPG) (Homo sapiens (Human), UniProt P00533, INS770NPG). Briefly: HotSpot radiometric kinase assay, EGFR (D770_N771insNPG). The settings on record: 10 μM ATP, read-out: EGFR (Δ770_N771insNPG) IC50. The method, then:
as §1, §2

Test [1] has as its target EGFR Δ746-750/C797S mutant (Homo sapiens (Human), UniProt P00533, C797S/DEL746-750). As to the kind of experiment: HotSpot radiometric kinase assay, EGFR Δ746-750/C797S mutant. Particulars: 10 μM ATP. The method, then:
as §1, §2

The next test addresses EGFR Δ746-750 mutant (Homo sapiens (Human), UniProt P00533, DEL746-750). As to the kind of experiment: HotSpot radiometric kinase assay, EGFR Δ746-750 mutant. The settings on record: 10 μM ATP. On the procedure: as §1, §2
A further test deals with EGFR WT (Homo sapiens (Human), UniProt P00533). As to the kind of experiment: HotSpot radiometric kinase assay (Reaction Biology), EGFR WT. Particulars: 10 μM ATP. The method, then: as §1, §2
Chain of EGFR WT (P00533 25-1210): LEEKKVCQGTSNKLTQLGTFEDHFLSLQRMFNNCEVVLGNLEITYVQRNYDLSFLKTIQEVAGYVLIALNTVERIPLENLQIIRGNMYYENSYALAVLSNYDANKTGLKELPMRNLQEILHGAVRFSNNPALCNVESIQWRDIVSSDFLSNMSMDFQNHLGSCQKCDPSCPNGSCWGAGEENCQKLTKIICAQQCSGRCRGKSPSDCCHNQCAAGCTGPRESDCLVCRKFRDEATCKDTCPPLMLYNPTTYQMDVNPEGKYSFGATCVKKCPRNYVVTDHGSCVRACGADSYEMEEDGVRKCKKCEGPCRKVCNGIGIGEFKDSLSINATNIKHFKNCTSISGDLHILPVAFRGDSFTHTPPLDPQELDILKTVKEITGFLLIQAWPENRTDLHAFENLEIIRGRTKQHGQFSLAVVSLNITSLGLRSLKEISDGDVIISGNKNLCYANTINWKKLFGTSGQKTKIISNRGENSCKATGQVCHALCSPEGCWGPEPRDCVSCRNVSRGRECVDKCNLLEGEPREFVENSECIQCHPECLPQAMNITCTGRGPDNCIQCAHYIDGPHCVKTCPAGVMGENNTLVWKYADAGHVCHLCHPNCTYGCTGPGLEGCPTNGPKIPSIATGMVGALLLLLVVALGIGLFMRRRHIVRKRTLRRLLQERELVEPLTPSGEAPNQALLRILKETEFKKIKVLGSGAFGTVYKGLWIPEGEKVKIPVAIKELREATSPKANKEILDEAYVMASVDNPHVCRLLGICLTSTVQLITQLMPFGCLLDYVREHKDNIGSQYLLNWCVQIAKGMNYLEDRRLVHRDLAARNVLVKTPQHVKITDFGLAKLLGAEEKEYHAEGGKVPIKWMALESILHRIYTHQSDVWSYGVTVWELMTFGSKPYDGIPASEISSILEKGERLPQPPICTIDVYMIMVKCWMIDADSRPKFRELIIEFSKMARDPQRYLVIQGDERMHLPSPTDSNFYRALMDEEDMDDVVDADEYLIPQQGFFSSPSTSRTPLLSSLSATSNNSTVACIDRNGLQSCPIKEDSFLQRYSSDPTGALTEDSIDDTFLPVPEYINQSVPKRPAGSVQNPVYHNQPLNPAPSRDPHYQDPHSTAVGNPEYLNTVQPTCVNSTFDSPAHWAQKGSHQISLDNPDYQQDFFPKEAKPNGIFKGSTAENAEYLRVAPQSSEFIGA
Test [2] addresses EGFR L858R/T790M/C797S mutant (Homo sapiens (Human), UniProt P00533, C797S/L858R/T790M). As to the kind of experiment: HotSpot radiometric kinase assay, EGFR L858R/T790M/C797S mutant. The settings on record: 10 μM ATP. On the procedure: as §1, §2
The target of a further test is EGFR L858R mutant (Homo sapiens (Human), UniProt P00533, L858R). As to the kind of experiment: HotSpot radiometric kinase assay, EGFR L858R mutant. The settings on record: 10 μM ATP. On the procedure:
as §1, §2

Chain of EGFR L858R/T790M mutant (P00533 25-1210 T790M/L858R): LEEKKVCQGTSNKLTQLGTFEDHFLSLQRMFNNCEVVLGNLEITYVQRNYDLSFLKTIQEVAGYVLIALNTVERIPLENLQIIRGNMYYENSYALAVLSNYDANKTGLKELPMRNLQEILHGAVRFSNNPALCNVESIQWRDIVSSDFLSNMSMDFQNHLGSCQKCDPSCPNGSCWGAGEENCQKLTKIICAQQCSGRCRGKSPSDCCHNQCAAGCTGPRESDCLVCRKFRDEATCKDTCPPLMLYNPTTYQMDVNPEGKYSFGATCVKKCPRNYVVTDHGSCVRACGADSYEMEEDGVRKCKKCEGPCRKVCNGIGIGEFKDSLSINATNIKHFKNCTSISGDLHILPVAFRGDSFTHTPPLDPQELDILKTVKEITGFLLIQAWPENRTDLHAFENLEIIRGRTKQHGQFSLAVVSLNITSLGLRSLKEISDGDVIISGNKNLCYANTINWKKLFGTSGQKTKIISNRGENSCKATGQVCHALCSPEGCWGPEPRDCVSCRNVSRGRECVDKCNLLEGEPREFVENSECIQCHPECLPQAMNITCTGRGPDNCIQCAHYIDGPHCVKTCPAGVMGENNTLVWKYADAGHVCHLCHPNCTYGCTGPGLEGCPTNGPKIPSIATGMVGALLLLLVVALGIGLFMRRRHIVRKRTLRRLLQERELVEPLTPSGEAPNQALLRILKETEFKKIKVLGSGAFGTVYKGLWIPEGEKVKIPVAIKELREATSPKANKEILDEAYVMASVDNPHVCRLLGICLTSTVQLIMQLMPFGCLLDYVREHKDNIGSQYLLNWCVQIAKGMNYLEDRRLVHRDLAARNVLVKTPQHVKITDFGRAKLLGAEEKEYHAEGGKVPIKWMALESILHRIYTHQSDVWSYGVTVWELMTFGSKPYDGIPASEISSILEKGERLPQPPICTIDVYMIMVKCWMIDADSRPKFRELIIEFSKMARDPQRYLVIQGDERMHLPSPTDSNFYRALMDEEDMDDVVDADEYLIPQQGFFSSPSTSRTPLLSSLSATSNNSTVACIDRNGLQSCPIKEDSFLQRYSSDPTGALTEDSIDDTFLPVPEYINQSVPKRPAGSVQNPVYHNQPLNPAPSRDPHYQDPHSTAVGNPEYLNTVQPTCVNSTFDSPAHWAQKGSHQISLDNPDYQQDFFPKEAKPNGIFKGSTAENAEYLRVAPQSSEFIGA
Chain of EGFR Δ746-750/C797S mutant (P00533 other isoform, or with tags, fused parts or gaps C797S/del 1-668/del 746-750 limits assumed): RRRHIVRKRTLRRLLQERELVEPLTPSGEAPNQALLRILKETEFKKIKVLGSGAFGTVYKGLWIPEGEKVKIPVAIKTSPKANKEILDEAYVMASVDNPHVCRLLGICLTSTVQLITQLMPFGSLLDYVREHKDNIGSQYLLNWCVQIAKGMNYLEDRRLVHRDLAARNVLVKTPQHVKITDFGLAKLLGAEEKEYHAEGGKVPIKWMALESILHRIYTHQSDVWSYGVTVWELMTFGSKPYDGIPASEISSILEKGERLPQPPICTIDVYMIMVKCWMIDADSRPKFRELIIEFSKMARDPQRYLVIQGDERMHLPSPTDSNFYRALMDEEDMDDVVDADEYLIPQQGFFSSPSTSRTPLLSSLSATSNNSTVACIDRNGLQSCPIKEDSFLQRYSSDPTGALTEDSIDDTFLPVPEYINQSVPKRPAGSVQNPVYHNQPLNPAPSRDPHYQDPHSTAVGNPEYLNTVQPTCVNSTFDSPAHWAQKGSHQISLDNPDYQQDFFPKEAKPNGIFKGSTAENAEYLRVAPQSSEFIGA
Chain of EGFR L858R/T790M/C797S mutant (P00533 25-1210 T790M/C797S/L858R): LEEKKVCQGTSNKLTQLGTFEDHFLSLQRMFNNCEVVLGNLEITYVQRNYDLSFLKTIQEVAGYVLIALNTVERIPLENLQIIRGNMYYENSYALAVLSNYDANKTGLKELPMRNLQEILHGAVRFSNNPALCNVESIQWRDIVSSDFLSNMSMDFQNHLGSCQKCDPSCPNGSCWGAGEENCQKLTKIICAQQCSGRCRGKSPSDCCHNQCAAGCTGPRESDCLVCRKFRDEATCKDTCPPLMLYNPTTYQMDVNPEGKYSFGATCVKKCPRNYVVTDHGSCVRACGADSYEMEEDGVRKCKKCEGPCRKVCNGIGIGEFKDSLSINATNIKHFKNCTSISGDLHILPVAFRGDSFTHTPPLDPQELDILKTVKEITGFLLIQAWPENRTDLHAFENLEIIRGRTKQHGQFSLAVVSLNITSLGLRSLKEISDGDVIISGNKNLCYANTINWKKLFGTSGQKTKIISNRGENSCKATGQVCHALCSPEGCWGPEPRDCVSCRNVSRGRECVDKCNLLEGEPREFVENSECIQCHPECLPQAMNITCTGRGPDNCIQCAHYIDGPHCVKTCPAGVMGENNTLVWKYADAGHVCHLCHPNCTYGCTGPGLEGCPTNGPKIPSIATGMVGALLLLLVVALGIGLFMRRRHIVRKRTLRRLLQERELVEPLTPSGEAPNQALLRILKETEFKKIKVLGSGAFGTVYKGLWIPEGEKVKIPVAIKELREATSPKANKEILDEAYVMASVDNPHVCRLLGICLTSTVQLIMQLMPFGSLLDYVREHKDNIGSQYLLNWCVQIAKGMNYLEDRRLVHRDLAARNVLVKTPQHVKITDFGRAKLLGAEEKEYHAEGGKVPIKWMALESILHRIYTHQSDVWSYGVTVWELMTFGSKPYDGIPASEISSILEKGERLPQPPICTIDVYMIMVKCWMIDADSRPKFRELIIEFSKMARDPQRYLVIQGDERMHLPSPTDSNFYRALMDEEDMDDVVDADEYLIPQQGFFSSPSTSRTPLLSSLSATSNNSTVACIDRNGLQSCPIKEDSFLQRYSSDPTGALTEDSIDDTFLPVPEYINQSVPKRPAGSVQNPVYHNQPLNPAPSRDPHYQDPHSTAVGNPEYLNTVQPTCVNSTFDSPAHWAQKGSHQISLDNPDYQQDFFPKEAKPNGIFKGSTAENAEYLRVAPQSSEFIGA
Chain of EGFR Δ746-750 mutant (P00533 other isoform, or with tags, fused parts or gaps del 1-668/del 746-750 limits assumed): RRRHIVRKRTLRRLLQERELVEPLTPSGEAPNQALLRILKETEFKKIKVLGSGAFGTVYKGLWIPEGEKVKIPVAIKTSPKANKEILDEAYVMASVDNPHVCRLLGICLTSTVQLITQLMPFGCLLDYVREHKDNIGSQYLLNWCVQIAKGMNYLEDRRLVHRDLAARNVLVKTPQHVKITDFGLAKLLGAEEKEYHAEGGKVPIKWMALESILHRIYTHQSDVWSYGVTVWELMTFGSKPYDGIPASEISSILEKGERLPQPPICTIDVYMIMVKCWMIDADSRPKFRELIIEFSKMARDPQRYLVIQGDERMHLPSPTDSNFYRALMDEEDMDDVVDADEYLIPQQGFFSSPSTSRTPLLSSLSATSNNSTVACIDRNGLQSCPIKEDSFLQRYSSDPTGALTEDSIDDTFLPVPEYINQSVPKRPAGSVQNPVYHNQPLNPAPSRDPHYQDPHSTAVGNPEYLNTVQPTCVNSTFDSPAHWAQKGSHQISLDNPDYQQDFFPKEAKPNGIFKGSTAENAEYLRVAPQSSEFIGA

Regarding `Cc1nn([C@H]2C[C@@H](NCCN(C)C)C2)c2c1/C=C/c1n[nH]c3ccc(cc13)-c1cnn(C)c1OCCCO2` [Example 108, N^2-{(1s,3s)-3-[(17E)-8,16-dimethyl-2,8,11,12-tetrahydro-10H,14H-3,5-etheno[1,5]dioxacyclopentadecino[10,11-c:15,14-c′:6,7-c″]tripyrazol-14-yl]cyclobutyl}-N^1,N^1-dimethylethane-1,2-diamine], the IC50 against EGFR L858R/T790M mutant amounted to 0.00386 µM; on EGFR (D770_N771insNPG), 0.103 µM; in test [1], 0.0492 µM; against EGFR Δ746-750 mutant, 0.0309 µM; on EGFR WT, 0.101 µM; in test [2], 0.0119 µM. This molecule had an IC50 against EGFR L858R mutant of 0.0262 µM.

On to `Cc1nn(C)c2c1/C=C/c1n[nH]c3ccc(cc13)-c1c(C)nn(C)c1OCCN(C)C2` [Example 47, (17E)-6,8,12,14,16-pentamethyl-2,10,11,12,13,14-hexahydro-8H-3,5-ethenotripyrazolo[3,4-f:3′,4′-j:4″,3″- n][1,4]oxazacyclopentadecine], for which the values for the IC50 (on EGFR (D770_N771insNPG); in test [1]; against EGFR Δ746-750 mutant) were greater than 1 µM, 0.944 µM and 0.488 µM, respectively.

Turning to `Cc1nn([C@H]2CNC[C@@H]2O)c2c1/C=C/c1n[nH]c3ccc(cc13)-c1cnn(C)c1OCCCO2` (racemic) [Example 74, (rac)-4-[(17E)-8,16-dimethyl-2,8,11,12-tetrahydro-10H,14H-3,5-etheno[1,5]dioxacyclopentadecino[10,11-c:15,14-c′:6,7-c″ ]tripyrazol-14-yl]pyrrolidin-3-ol], the IC50 came to 0.0125 µM on EGFR L858R/T790M mutant; 0.109 µM at EGFR (D770_N771insNPG); 0.0398 µM in test [1]; 0.0741 µM against EGFR Δ746-750 mutant; 0.086 µM on EGFR WT; 0.0158 µM in test [2]. For the same molecule, the half-inhibitory concentration (IC50) against EGFR L858R mutant came out at 0.0361 µM.

Take `CCc1nn(C)c2c1/C=C/c1n[nH]c3ccc(cc13)-c1cnn(C)c1OCC[C@@H](C)O2` [Ex. 15, (12R,17E)-16-ethyl-8,12,14-trimethyl-2,11,12,14-tetrahydro-8H,10H-3,5-etheno[1,5]dioxacyclopentadecino[10,11-c:15,14-c′:6,7-c″]tripyrazole]: the IC50 came out at 0.286 µM on EGFR (D770_N771insNPG); 0.0275 µM in test [1]; 0.139 µM on EGFR Δ746-750 mutant; 0.419 µM at EGFR WT; 0.0264 µM in test [2]; 0.105 µM against EGFR L858R mutant.

For the molecule `CCOc1nn(CCO)c2c1/C=C/c1n[nH]c3ccc(cc13)-c1cnn(C)c1O[C@H](C)[C@H]1CCCN1C2` (single isomer, unassigned) [compound 241], the IC50 at EGFR (D770_N771insNPG) came to 0.00018 µM; in test [1], 0.00031 µM; against EGFR Δ746-750 mutant it was 0.00013 µM.

On to `Cc1nn(CCN2CCCC2)c2c1/C=C/c1n[nH]c3ccc(cc13)-c1cnn(C)c1C(C)OCCO2` (stereo not drawn) [Example 100, (17E)-8,9,16-trimethyl-14-[2-(pyrrolidin-1-yl)ethyl]-2,8,9,11,12,14-hexahydro-3,5-etheno[1,4]dioxacyclopentadecino[11,10-c:15,14-c′:6,7-c″]tripyrazole], for which the IC50 at EGFR L858R/T790M mutant was 0.0104 µM; on EGFR (D770_N771insNPG) it was 0.25 µM; in test [1], 0.091 µM; against EGFR Δ746-750 mutant, 0.198 µM; against EGFR WT it was 0.29 µM; in test [2], 0.0192 µM. The molecule also came in with an IC50 against EGFR L858R mutant of 0.0877 µM.

For `CCOc1nn(CCO)c2c1/C=C/c1n[nH]c3ccc(cc13)-c1cnn(C)c1OC1CCCN(C2)C1C` (stereo not drawn) [Example 242, 2-[(19E)-18-ethoxy-8,21-dimethyl-2,10,11,12,13,15-hexahydro-3,5-etheno-10,14-methanotripyrazolo[3,4-h:3′,4′-l:4″,3″-p][1,6]oxazacycloheptadecin-16(8H)-yl]ethan-1-ol], the IC50 at EGFR (D770_N771insNPG) stood at 0.304 µM; in test [1] it was 0.0403 µM; against EGFR Δ746-750 mutant it was 0.0555 µM.

On to `Cc1c2c(nn1CCN1CCCC1)OCCOC(C)c1c(cnn1C)-c1ccc3[nH]nc(c3c1)/C=C/2` (stereo not drawn) [Example 84, (17E)-8,9,16-trimethyl-15-[2-(pyrrolidin-1-yl)ethyl]-2,8,9,11,12,15-hexahydro-3,5-etheno[1,4]dioxacyclopentadecino[11,10-c:15,14-c′:6,7-c″]tripyrazole], for which the results for the IC50 (at EGFR (D770_N771insNPG); in test [1]; against EGFR Δ746-750 mutant) were 0.551 µM, 0.13 µM and 0.381 µM, respectively.

For the molecule `Cc1nn(CC(C)(C)O)c2c1/C=C/c1n[nH]c3ccc(cc13)-c1cnn(C)c1OCCCO2` [Example 30, 1-[(17E)-8,16-dimethyl-2,8,11,12-tetrahydro-10H,14H-3,5-etheno[1,5]dioxacyclopentadecino[10,11-c:15,14-c′:6,7-c″]tripyrazol-14-yl]-2-methylpropan-2-ol], the IC50 at EGFR (D770_N771insNPG) stood at 0.983 µM; against EGFR Δ746-750 mutant it was 0.217 µM; at EGFR WT it was 1.3 µM; in test [2], 0.0368 µM; on EGFR L858R mutant, 0.268 µM.

Take `Cc1nn(CCN2CCCC2)c2c1/C=C/c1n[nH]c3ccc(cc13)-c1cnn(C)c1OCCCO2` [Ex. 32, (17E)-8,16-dimethyl-14-[2-(pyrrolidin-1-yl)ethyl]-2,11,12,14-tetrahydro-8H,10H-3,5-etheno[1,5]dioxacyclopentadecino[10,11-c:15,14-c′:6,7-c″ ]tripyrazole]: the IC50 on EGFR (D770_N771insNPG) was 0.457 µM; against EGFR Δ746-750 mutant, 0.155 µM; on EGFR WT it was 1.26 µM; in test [2] it was 0.0373 µM; at EGFR L858R mutant, 0.242 µM.

Turning to `Cc1nn(C)c2c1/C=C/c1n[nH]c3ccc(cc13)-c1cnn(C)c1CN(C)C[C@H](C)O2` (single isomer, unassigned) [Example 97], the IC50 at EGFR (D770_N771insNPG) was determined as 0.304 µM; in test [1], 0.101 µM; on EGFR Δ746-750 mutant, 0.221 µM.

`Cc1c2c(nn1C)CN(C)CCOc1c(cnn1C)-c1ccc3[nH]nc(c3c1)/C=C/2` [Example 44, (17E)-8,12,15,16-tetramethyl-2,10,11,12,13,15-hexahydro-8H-3,5-ethenotripyrazolo[3,4-f:3′,4′-j:4″,3″- n][1,4]oxazacyclopentadecine]: the IC50 on EGFR (D770_N771insNPG) was greater than 1 µM; in test [1] it was 0.13 µM; against EGFR Δ746-750 mutant, 0.112 µM; at EGFR WT, 1.47 µM; in test [2] it was 0.027 µM; on EGFR L858R mutant it was 0.285 µM.

Regarding `CCc1nn(C)c2c1/C=C/c1n[nH]c3ccc(cc13)-c1cnn(C)c1O[C@@H](C)CCO2` [Ex. 37, (10S,17E)-16-ethyl-8,10,14-trimethyl-2,11,12,14-tetrahydro-8H,10H-3,5-etheno[1,5]dioxacyclopentadecino[10,11-c:15,14-c′:6,7-c″]tripyrazole], the IC50 came out at 0.212 µM at EGFR (D770_N771insNPG); 0.0499 µM in test [1]; 0.064 µM against EGFR Δ746-750 mutant; 0.157 µM against EGFR WT; 0.0173 µM in test [2]; 0.0418 µM against EGFR L858R mutant.

`Cc1c2c(nn1[C@H]1CCN(C)C[C@@H]1O)OCCCOc1c(cnn1C)-c1ccc3[nH]nc(c3c1)/C=C/2` (racemic) [Example 83, (rac)-4-[(17E)-8,16-dimethyl-2,8,11,12-tetrahydro-10H,15H-3,5-etheno[1,5]dioxacyclopentadecino[10,11-c:15,14-c′:6,7-c″]tripyrazol-15-yl]-1-methylpiperidin-3-ol]: the IC50 at EGFR (D770_N771insNPG) was determined as 0.0554 µM; in test [1], 0.0313 µM; at EGFR Δ746-750 mutant, 0.0346 µM.

Consider `Cc1c2c(nn1CCN1CCCC1)CN(C)C[C@H](C)Oc1c(cnn1C)-c1ccc3[nH]nc(c3c1)/C=C/2` [Example 89, (10S,17E)-8,10,12,16-tetramethyl-15-[2-(pyrrolidin-1-yl)ethyl]-2,10,11,12,13,15-hexahydro-8H-3,5-ethenotripyrazolo[3,4-f:3′,4′-j:4″,3″-n][1,4]oxazacyclopentadecine], for which the IC50 on EGFR (D770_N771insNPG) amounted to 0.191 µM; in test [1] it was 0.00667 µM; against EGFR Δ746-750 mutant, 0.0197 µM.

`Cc1c2c(nn1CCN1CCCC1)OCCCOc1c(cnn1C)-c1ccc3[nH]nc(c3c1)/C=C/2` [Example 34, (17E)-8,16-dimethyl-15-[2-(pyrrolidin-1-yl)ethyl]-2,11,12,15-tetrahydro-8H,10H-3,5-etheno[1,5]dioxacyclopentadecino[10,11-c:15,14-c′:6,7-c″]tripyrazole]: the IC50 at EGFR (D770_N771insNPG) amounted to 0.191 µM; at EGFR Δ746-750 mutant, 0.153 µM; against EGFR WT it was 0.326 µM; in test [2] it was 0.0409 µM; against EGFR L858R mutant, 0.114 µM.

Consider `CCc1nn(C)c2c1/C=C/c1n[nH]c3ccc(cc13)-c1cnn(C)c1OCC[C@H](C)O2` [Ex. 14, (12S,17E)-16-ethyl-8,12,14-trimethyl-2,11,12,14-tetrahydro-8H,10H-3,5-etheno[1,5]dioxacyclopentadecino[10,11-c:15,14-c′:6,7-c″]tripyrazole], for which the IC50 came to 0.312 µM on EGFR (D770_N771insNPG); 0.0347 µM in test [1]; 0.124 µM against EGFR Δ746-750 mutant; 0.339 µM against EGFR WT; 0.0195 µM in test [2]; 0.0638 µM at EGFR L858R mutant.
